# According to patent US10144944B2, “Methods of cell culture” (Momenta Pharmaceuticals, Inc., priority 2013, dated 2018):
# Read-outs that look alike come from different tables or passages of the source.
# What was measured:
# [1] = test system: model antibody produced by CHO cells
# Experimental: (§1) The effect of putrescine on antibody glycoforms of a model antibody produced by CHO cells was analyzed. CHO cells genetically engineered to express the antibody were grown initially in base media (Power CHO2, Catalog #BE15-771, Lonza Inc., Allendale, N.J.). Cells were then inoculated (at 0.55×10^6 cells/mL) into a chemically defined medium containing 0.17 mg/L, 0.35 mg/L, or […] putrescine 2HCl and cultured as a batch culture in TPP tubespins for 7 days.
# (§2) Cell viability was assessed on day 4 using a hemocytometer using cells stained with trypan blue. Titer was determined from the day-7 cultures by protein A affinity HPLC. Relative quantitation of each glycoform was performed on purified protein using Chip ToF. Chip ToF uses mass spectrometry to measure the extracted ion chromatogram (XIC) area for each species after chip-based enzymatic removal and purification of N-glycans, relative to the total XIC for detected species (see, e.g., mAb-Glyco Chip Kit, Agilent Technologies).
# [2] = test system: CHO cells genetically engineered to express the antibody; conditions: for Product titer: day-7 batch culture; for viable cell density (VCD): day 4
# Experimental: as §1, §2
# [3] = with increasing levels of putrescine, FIG. 4
# [4] = with increasing putrescine, FIG. 3
compound,measurement,setting,value
NCCCCN [putrescine],"relative change in G0F, G1F, and G2F","[1]; 0.52 mg/L putrescine compared to 0.17 mg/L putrescine, FIG. 3",about 10%
same,putrescine level above which effect on fucosylated glycans saturates,"[1]; non-linear relationship, FIG. 2",above 0.35 mg/mL
same,fraction of fucosylated glycans,"[1]; with increasing levels of putrescine (0.17-0.52 mg/L), FIG. 2",increased
same,high mannose glycans,[1]; [3],reduced
same,level of sialylated glycans,[1]; [3],increased
same,level of galactosylation,[1]; with increasing putrescine,increase
same,levels of G0F,[1]; [4],reduced
same,levels of G1F,[1]; [4],increased
same,levels of G2F,[1]; [4],increased
same,Product titer,[2]; 0.17 mg/L putrescine in medium,40 mg/L
same,viable cell density (VCD),[2]; 0.17 mg/L putrescine,1.5×10^6 cells/mL
same,Product titer,[2]; 0.35 mg/L putrescine in medium,58 mg/L
same,viable cell density (VCD),[2]; 0.35 mg/L putrescine,1.8×10^6 cells/mL
same,Product titer,[2]; 0.52 mg/L putrescine in medium,73 mg/L
same,viable cell density (VCD),[2]; 0.52 mg/L putrescine,2.2×10^6 cells/mL
